Data: patent US10266566B2, “Protease-resistant peptide ligands” (North Carolina State University, priority 2013, dated 2019)
Entries after “also recorded” stand apart in the source; their conditions may differ. Where a SMILES comes first, the peptide text is derived from it. Where no end group is shown, it is not given here. [ ]: non-standard residue; d: D form. The star is where a group is joined. Toyopearl = Toyopearl AF-Amino-650M resin to which the C-terminus is tethered; Trp(1-Me) = Cn1cc(C[C@H](N)C(=O)O)c2ccccc21; Phe(4-Me) = Cc1ccc(C[C@H](N)C(=O)O)cc1; Lys(Me2) = CN(C)CCCC[C@H](N)C(=O)O; Cit = NC(=O)NCCC[C@H](N)C(=O)O; For = O=C*

Assays:
[1] = target: T1, α-chymotrypsin (Bos taurus, UniProt P00766); experiment: Resistance of peptide ligands to proteolytic digestion: IgG yield after contact with α-chymotrypsin; assay type: in vitro ADME; conditions: for IgG Yield 2nd run (after α-chymotrypsin): after contact with α-chymotrypsin in Tris buffer pH 8.5 for 10 minutes; for resistance to α-chymotrypsin (in words): loss of IgG binding capacity after enzyme treatment, FIG. 2
T1 construct: purchased Sigma Aldrich
Protocol: (§1) All resins (35 mg each) were packed in a 30 mm×2.1 mm I.D. Microbore column (0.1 mL) (Alltech-Applied Science, Somerset, Pa., USA) and swollen with 20% v/v methanol. After equilibration with PBS, pH 7.4, three IgG binding tests were performed using a 10 mg/mL solution of hIgG in PBS. Between each binding test, the resin was contacted with a 0.15 mg/mL solution of either trypsin or α-chymotrypsin in Tris HCl buffer, pH 8.5. The chromatographic protocol employed for all five injections was as follows. One hundred microliters of feed sample was loaded onto the column at a flow rate of 0.05 mL/min (87 cm/h). After a washing step with 2 mL of equilibration buffer at a flow rate of 0.2 mL/min (348 cm/h), elution was performed with 4 mL of 0.2M acetate buffer pH 4.0 at a flow rate of 0.4 mL/min (696 cm/h). Finally, the adsorbent was regenerated with 4 mL of 0.85% phosphoric acid. The adsorbents HWRGWV-, HYFKFD-, and HFRRHL-Toyopearl (SEQ ID NOS: 6, 16, 17) resins were used as controls. The effluent was monitored by absorbance at 280 nm.
(§2) Based on the results reported in Table 2, the original sequences HWRGWV, HFRRHL, and HYFKFD (SEQ ID NOS: 1-3), and their variants HWMetCitGWMetV, HFMetCitCitHL, and HYMetFMetK(Met)2FMetD (SEQ ID NOS: 4, 5, 7) were tested for their resistance to enzymatic digestion. The sequences HWMetCitGWMetV (SEQ ID NO: 8), HFMetCitCitHL (SEQ ID NO: 5) were selected as the best variants of their respective original peptides, while HYMetFMetKMet2FMetD (SEQ ID NO: 7) was used as a negative control. […] Each adsorbent was subjected to five consecutive chromatographic runs. First, a solution of pure human polyclonal IgG at 10 mg/mL in PBS was injected to determine IgG yield for each adsorbent prior to contact with any enzyme. All four peptide variants gave a yield above 91% for this initial run. The resin was then contacted with a solution of α-chymotrypsin in Tris buffer pH 8.5 for 10 minutes. The amount of enzyme loaded onto the column was in a mass ratio of 1:100 peptide:enzyme, as done by Verdoliva et al.. After rinsing the resin, a second injection of IgG was then performed to estimate the loss of binding capacity due to the digestion of the peptide ligand by α-chymotrypsin. The resin was then contacted with the second enzyme solution, i.e., trypsin in Tris buffer pH 8.5, at the same peptide:enzyme ratio. A third IgG injection was finally performed to estimate the residual binding capacity of each resin after the second enzyme treatment.

[2] = system: trypsin; experiment: Resistance of peptide ligands to proteolytic digestion: IgG yield after contact with trypsin; assay type: in vitro ADME; conditions: for IgG Yield 3rd run (after trypsin): after α-chymotrypsin and then trypsin in Tris buffer pH 8.5; for resistance to trypsin (in words): loss of IgG binding capacity after enzyme treatment, FIG. 2
Protocol: as §1, §2

[3] = system: human polyclonal IgG; experiment: Chromatographic IgG binding test of peptide-Toyopearl adsorbents with pure human polyclonal IgG; conditions: peptide on Toyopearl resin, approx. 0.12 meq/g, 0.1 mL column; ratio of IgG eluted to total IgG loaded
Protocol: All resins (35 mg each) were packed in a 30 mm×2.1 mm I.D. Microbore column (0.1 mL) (Alltech-Applied Science, Somerset, Pa., USA) and swollen with 20% v/v methanol. After equilibration with PBS, pH 7.4, three IgG binding tests were performed using a 10 mg/mL solution of hIgG in PBS. Between each binding test, the resin was contacted with a 0.15 mg/mL solution of either trypsin or α-chymotrypsin in Tris HCl buffer, pH 8.5. The chromatographic protocol employed for all five injections was as follows. One hundred microliters of feed sample was loaded onto the column at a flow rate of 0.05 mL/min (87 cm/h). […] The effluent was monitored by absorbance at 280 nm.
The amount of IgG in the collected fractions was quantified by HPLC using 1 mL HiTrap Protein G column. The yield of IgG was calculated as the ratio of IgG eluted to total IgG loaded. The purity of IgG in the eluted fractions was determined by sodium dodecyl sulfate polyacrylamide gel electrophoresis (SDS-PAGE) under reducing conditions using NuPAGE® Novex 4-12% Bis-Tris gels in a Xcell SuperLock™ Mini-Cell system (LifeSciences, Carlsbad, Calif., USA). […] The IgG purity was determined by densitometric analysis of Coomassie-stained gels by means of ImageJ 1.32j software (National Institutes of Health, Bethesda, Md., USA). […]

[4] = system: IgG; experiment: Purification of IgG (IVIG) from Cohn fraction II+III of human plasma, yield and purity; assay type: binding
[5] = 0.13M NaCl in PBS binding buffer
[6] = 0.25M NaCl in PBS binding buffer

Compound	IgG Yield 2nd run (after α-chymotrypsin) [1]	IgG Yield 3rd run (after trypsin) [2]	resistance to trypsin (in words) [2]	resistance to α-chymotrypsin (in words) [1]	other results
CC(C)[C@H](NC(=O)[C@H](Cc1c[nH]c2ccccc12)NC(=O)CNC(=O)[C@H](CCCNC(N)=O)NC(=O)[C@H](Cc1c[nH]c2ccccc12)NC(=O)[C@@H](N)Cc1c[nH]cn1)C(=O)O [HWCitGWV] (H-HW[Cit]GWV-OH; N-terminus and C-terminus assumed)	73%	71%	resistance towards one enzyme only	–	–
HWRGWV [HWRGWV, reference compound]	72%	36%	degraded by both trypsin and α-chymotrypsin; also recorded: ideal substrate for trypsin	degraded by both trypsin and α-chymotrypsin	–
CC(C)[C@H](NC(=O)[C@H](Cc1cn(C=O)c2ccccc12)NC(=O)CNC(=O)[C@H](CCCNC(N)=O)NC(=O)[C@H](Cc1cn(C=O)c2ccccc12)NC(=O)[C@@H](N)Cc1c[nH]cn1)C(=O)O [HWForCitGWForV] (H-HW(For)[Cit]GW(For)V-OH; N-terminus and C-terminus assumed)	69%	69%	–	–	–
HWMetCitDWMetV: variant created by replacing glycine with aspartic acid	–	–	–	–	IgG Yield [3]: 47%
Cc1ccc(C[C@H](NC(=O)[C@@H](N)Cc2c[nH]cn2)C(=O)N[C@@H](CCCNC(N)=O)C(=O)N[C@@H](CCCNC(N)=O)C(=O)N[C@@H](Cc2c[nH]cn2)C(=O)N[C@@H](CC(C)C)C(=O)O)cc1 [HFMetCitCitHL] (H-H[Phe(4-Me)][Cit][Cit]HL-OH; N-terminus and C-terminus assumed)	92%	91%	–	–	–
HFcarbCitCitHL: variant of HFRRHL designed using carbamoyl-phenylalanine and citrulline (HF[Cit][Cit]HL-Toyopearl; not fully specified (residue 2); printed as HFcarbCitCitHL)	–	–	–	–	IgG Yield [3]: 53%
HFRRHL [HFRRHL, reference compound]	78%	54%	good substrate for trypsin	–	–
Ac-HWRGWV: acetylated version of the original HWRGWV (not fully specified (C-terminus); printed as Ac-HWRGWV; also: TOYOPEARL at residue 6)	–	–	–	–	IgG Purity ([4]; 0M NaCl in PBS binding buffer): 80%; IgG Yield ([4]; 0M NaCl in PBS binding buffer): 91%; IgG Purity [4, 5]: 80%; IgG Yield [4, 5]: 84%; IgG Purity [4, 6]: 84%; IgG Yield [4, 6]: 83%
Ac-HWMetCitGWMetV: acetylated version of the variant HWMetCitGWMetV (Ac-H[Trp(1-Me)][Cit]G[Trp(1-Me)]V; not fully specified (C-terminus))	–	–	–	–	IgG Purity [4, 6]: 92%; IgG yield over the binding buffers ([4]; over 0M, 0.13M, 0.25M NaCl binding buffers): above 90%

Second part, led by results:

IgG Yield 2nd run (after α-chymotrypsin) [1]	IgG Yield 3rd run (after trypsin) [2]	resistance to trypsin (in words) [2]	resistance to α-chymotrypsin (in words) [1]	Compound	other results
49%	53%	high resistance to proteolysis	high resistance to proteolysis	COc1ccc(C[C@H](NC(=O)[C@@H](N)Cc2c[nH]cn2)C(=O)N[C@@H](Cc2ccc(C)cc2)C(=O)N[C@@H](CCCCN(C)C)C(=O)N[C@@H](Cc2ccc(C)cc2)C(=O)N[C@@H](CC(=O)O)C(=O)O)cc1 [HYMetFMetKMet2FMetD] (H-HY(Me)[Phe(4-Me)][Lys(Me2)][Phe(4-Me)]D-OH; N-terminus and C-terminus assumed)	–
76%	71%	almost immune to the attack of trypsin	–	HYFKFD [HYFKFD, reference compound]	–
91%	90%	completely unaffected by either	completely unaffected by either	CC(C)[C@H](NC(=O)[C@H](Cc1cn(C)c2ccccc12)NC(=O)CNC(=O)[C@H](CCCNC(N)=O)NC(=O)[C@H](Cc1cn(C)c2ccccc12)NC(=O)[C@@H](N)Cc1c[nH]cn1)C(=O)O [HWMetCitGWMetV] (H-H[Trp(1-Me)][Cit]G[Trp(1-Me)]V-OH; N-terminus and C-terminus assumed)	–
91%	82%	–	resistance towards one enzyme only	CC(C)[C@H](NC(=O)[C@H](Cc1cn(C)c2ccccc12)NC(=O)CNC(=O)[C@H](CCCNC(=N)N)NC(=O)[C@H](Cc1cn(C)c2ccccc12)NC(=O)[C@@H](N)Cc1c[nH]cn1)C(=O)O [HWMetRGWMetV] (H-H[Trp(1-Me)]RG[Trp(1-Me)]V-OH; N-terminus and C-terminus assumed)	–
